# Data: patent US9150840B2, “Isolated bacterial strain of Achromobacter sp. MTCC 5605 and a highly enantioselective epoxide hydrolase isolated therefrom” (COUNCIL OF SCIENTIFIC & INDUSTRIAL RESEARCH, priority 2011, dated 2015)
# Like-named read-outs stand apart in the source and are kept apart here.
# Key:
# [1] = test system: epoxide hydrolase from Achromobacter sp. MTCC 5605; type: biochemical; conditions: pH 8
# [2] = test system: Achromobacter sp. MTCC 5605; assay: Antibiotic sensitivity of the isolated strain; type: cell-based
compound,measurement,setting,value
O[C@H](CS)[C@H](O)CS (racemic) [dithiothreitol],Inhibition of epoxide hydrolase activity,[1],none of them showed any inhibition
C[C@@H]1[C@H](O)[C@@H](C)/C=C/C=C/C=C/C=C/C=C/C=C/C=C/[C@H](O[C@@H]2O[C@H](C)[C@@H](O)[C@H](N)[C@@H]2O)C[C@@H]2O[C@](O)(C[C@@H](O)C[C@@H](O)[C@H](O)CC[C@@H](O)C[C@@H](O)CC(=O)O[C@H]1C)C[C@H](O)[C@H]2C(=O)O [Amphotericin B],Antibiotic sensitivity,[2],"Resistant to Penicillin-G (10 units), Methicillin (5 mcg),"
O=C(N[C@H](CO)[C@H](O)c1ccc([N+](=O)[O-])cc1)C(Cl)Cl [Chloramphenicol],Antibiotic sensitivity,[2],"Sensitive to Erythromycin (10 mcg), Gentamycin (10 mcg),"
O=C(O)c1cn(C2CC2)c2cc(N3CCNCC3)c(F)cc2c1=O [Ciprofloxacin],Antibiotic sensitivity,[2],"Sensitive to Erythromycin (10 mcg), Gentamycin (10 mcg),"
CC[C@H]1OC(=O)[C@H](C)[C@@H](O[C@H]2C[C@@](C)(OC)[C@@H](O)[C@H](C)O2)[C@H](C)[C@@H](O[C@@H]2O[C@H](C)C[C@H](N(C)C)[C@H]2O)[C@](C)(O)C[C@@H](C)C(=O)[C@H](C)[C@@H](O)[C@]1(C)O [Erythromycin],Antibiotic sensitivity,[2],"Sensitive to Erythromycin (10 mcg), Gentamycin (10 mcg),"
COc1cccc(OC)c1C(=O)N[C@@H]1C(=O)N2[C@@H]1SC(C)(C)[C@@H]2C(=O)O [Methicillin],Antibiotic sensitivity,[2],"Resistant to Penicillin-G (10 units), Methicillin (5 mcg),"
C[C@@H]1[C@H](O)[C@@H](C)/C=C/C=C/CC/C=C/C=C/C=C/C=C/C(O[C@H]2O[C@H](C)[C@@H](O)[C@H](N)[C@@H]2O)CC2O[C@](O)(CC(O)C(O)CCC(O)CC(O)CC(O)CC(=O)O[C@H]1C)CC(O)C2C(=O)O (stereo partly drawn) [Nystatin],Antibiotic sensitivity,[2],"Resistant to Penicillin-G (10 units), Methicillin (5 mcg),"
CC1(C)S[C@@H]2[C@H](NC(=O)Cc3ccccc3)C(=O)N2[C@H]1C(=O)O [Penicillin-G],Antibiotic sensitivity,[2],"Resistant to Penicillin-G (10 units), Methicillin (5 mcg),"
CCCCCCCCCCCCCCCC[N+](C)(C)C.[Br-] [cetyltrimethylammonium bromide],Inhibition of epoxide hydrolase activity,[1],none of them showed any inhibition
CCOC(=O)OC(=O)OCC [diethyl pyrocarbonate],Inhibition of epoxide hydrolase activity,[1],none of them showed any inhibition
O=C(O)CN(CCN(CC(=O)O)CC(=O)O)CC(=O)O [ethylenediaminetetraacetic acid],Inhibition of epoxide hydrolase activity,[1],none of them showed any inhibition
NO [hydroxylamine],Inhibition of epoxide hydrolase activity,[1],none of them showed any inhibition
NNc1ccccc1 [phenyl hydrazine],Inhibition of epoxide hydrolase activity,[1],none of them showed any inhibition
CCCCCCCCCCCCOS(=O)(=O)[O-].[Na+] [sodium dodecyl sulphate],Inhibition of epoxide hydrolase activity,[1],none of them showed any inhibition
Gentamycin,Antibiotic sensitivity,"[2]; amount per antibiotic as printed (5-30 mcg, 10 units)","Sensitive to Erythromycin (10 mcg), Gentamycin (10 mcg),"
